Measured values: the NIST ThermoML archive (doi:10.1021/je030177j)

Assay: mn = molality of the nth substance listed, in mol/kg
Details: Liquid, Capillary tube (Ostwald / Ubbelohde) method

O=S(=O)([O-])[O-].[Li+].[Li+] [lithium sulfate] + O
viscosity [mPa·s]
Details | 100 kPa | 10000 kPa | 20000 kPa | 30000 kPa
347.05 K, m1 = 0.1 | – | 0.4034 | 0.4061 | 0.4088
348.15 K, m1 = 0.1 | 0.401 | – | – | –
348.15 K, m1 = 0.28 | 0.433 | – | – | –
348.15 K, m1 = 0.56 | 0.495 | – | – | –
348.15 K, m1 = 0.885 | 0.582 | – | – | –
348.95 K, m1 = 0.885 | – | 0.5714 | 0.5753 | 0.5792
349.55 K, m1 = 0.56 | – | 0.4831 | 0.4864 | 0.4897
351.04 K, m1 = 0.28 | – | 0.415 | 0.4183 | 0.4215
356.84 K, m1 = 0.1 | – | 0.3566 | 0.359 | 0.3621
358.15 K, m1 = 0.1 | 0.355 | – | – | –
358.15 K, m1 = 0.28 | 0.381 | – | – | –
358.15 K, m1 = 0.56 | 0.437 | – | – | –
358.15 K, m1 = 0.885 | 0.511 | – | – | –
359.14 K, m1 = 0.885 | – | 0.4999 | 0.5041 | 0.508
361.24 K, m1 = 0.56 | – | 0.4168 | 0.4191 | 0.4222
362.74 K, m1 = 0.28 | – | 0.3601 | 0.363 | 0.3662
365.04 K, m1 = 0.1 | – | 0.3241 | 0.3265 | 0.3291
369.72 K, m1 = 0.885 | – | 0.4415 | 0.4452 | 0.4495
372.13 K, m1 = 0.56 | – | 0.3691 | 0.3721 | 0.3752
375.75 K, m1 = 0.28 | – | 0.3127 | 0.3153 | 0.3181
378.85 K, m1 = 0.1 | – | 0.2812 | 0.2836 | 0.2862
379.05 K, m1 = 0.885 | – | 0.3993 | 0.4028 | 0.4065
383.06 K, m1 = 0.28 | – | 0.2916 | 0.2942 | 0.2974
384.05 K, m1 = 0.56 | – | 0.3274 | 0.3304 | 0.3335
384.27 K, m1 = 0.885 | – | 0.3782 | 0.382 | 0.3861
389.16 K, m1 = 0.1 | – | 0.2554 | 0.2577 | 0.2599
390.35 K, m1 = 0.56 | – | 0.3089 | 0.3124 | 0.3154
390.42 K, m1 = 0.28 | – | 0.2721 | 0.275 | 0.2784
390.72 K, m1 = 0.885 | – | 0.355 | 0.3591 | 0.3633
397.35 K, m1 = 0.885 | – | 0.3337 | 0.3371 | 0.3406
399.95 K, m1 = 0.28 | – | 0.2502 | 0.2528 | 0.2555
400.84 K, m1 = 0.1 | – | 0.2306 | 0.2331 | 0.236
401.73 K, m1 = 0.56 | – | 0.2797 | 0.2827 | 0.2855
405.24 K, m1 = 0.885 | – | 0.3115 | 0.3152 | 0.3194
409.36 K, m1 = 0.28 | – | 0.2314 | 0.234 | 0.2369
410.95 K, m1 = 0.1 | – | 0.2126 | 0.215 | 0.2192
411.05 K, m1 = 0.56 | – | 0.2584 | 0.2613 | 0.2644
415.13 K, m1 = 0.56 | – | 0.2502 | 0.2531 | 0.2564
415.76 K, m1 = 0.885 | – | 0.286 | 0.2901 | –
